These results are taken from PubChem BioAssay AID256 (DTP/NCI, 2004).

“And” between values parts separate entries of the source, which are not always exact repeats. Equal values may be shown once. Toxic doses and inconclusive results are not listed.

The subject of this assay is CD2F1 mice, L1210 leukemia ip, survival T/C. Put plainly: NCI In Vivo Anticancer Drug Screen. Data for tumor model L1210 Leukemia (intraperitoneal) in CD2F1 (CDF1) mice. Particulars: higher = longer survival. The gist of the method:
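Each value reflects a quotient of treated over vehicle control outcomes in mice with a transplanted tumor.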

Where [1] appears, read: endpoint: mean survival time, dose: 100.0 mg/kg/injection, schedule: Q01DX009 (ip), vehicle: saline with Tween-80.
The mark [2] stands for this setting: endpoint: mean survival time, dose: 200.0 mg/kg/injection, schedule: Q01DX009 (ip), vehicle: saline with Tween-80.
[3] abbreviates: endpoint: mean survival time, dose: 400.0 mg/kg/injection, schedule: Q01DX009 (ip), vehicle: saline with Tween-80.

In the case of `O=C(O)c1ccc(C(=O)O)c(C(=O)O)c1.[NH-]C1CCCCC1[NH-].[Pt+2]`, the T/C is 123 % of control (endpoint: mean survival time, dose: 0.39 mg/kg/injection, schedule: Q01DX009 (ip), vehicle: sodium bicarbonate); 115 % of control (endpoint: mean survival time, dose: 0.39 mg/kg/injection, schedule: Q04DX003 (ip), vehicle: other); 174 % of control and 200 % of control (endpoint: mean survival time, dose: 0.78 mg/kg/injection, schedule: Q01DX009 (ip), vehicle: sodium bicarbonate); 120 % of control (endpoint: mean survival time, dose: 0.78 mg/kg/injection, schedule: Q04DX003 (ip), vehicle: other); 119 % of control (endpoint: mean survival time, dose: 0.78 mg/kg/injection, schedule: Q04DX003 (ip), vehicle: sodium bicarbonate); 172 % of control and 325 % of control (endpoint: mean survival time, dose: 1.56 mg/kg/injection, schedule: Q01DX009 (ip), vehicle: sodium bicarbonate). Besides, the T/C runs as follows: (endpoint: mean survival time, dose: 1.56 mg/kg/injection, schedule: Q04DX003 (ip), vehicle: sodium bicarbonate) 119 % of control; (endpoint: mean survival time, dose: 3.12 mg/kg/injection, schedule: Q01DX009 (ip), vehicle: sodium bicarbonate) 155 % of control and 196 % of control and 251 % of control; (endpoint: mean survival time, dose: 3.13 mg/kg/injection, schedule: Q04DX003 (ip), vehicle: other) 183 % of control; (endpoint: mean survival time, dose: 6.25 mg/kg/injection, schedule: Q01DX009 (ip), vehicle: sodium bicarbonate) 190 % of control; (endpoint: mean survival time, dose: 6.25 mg/kg/injection, schedule: Q04DX003 (ip), vehicle: other) 240 % of control and 263 % of control; (endpoint: mean survival time, dose: 6.25 mg/kg/injection, schedule: Q04DX003 (ip), vehicle: sodium bicarbonate) 158 % of control. The T/C (endpoint: mean survival time, dose: 8.0 mg/kg/injection, schedule: Q01DX005 (oral), vehicle: sodium bicarbonate) was 113 % of control and 120 % of control and 101 % of control; the T/C (endpoint: mean survival time, dose: 12.5 mg/kg/injection, schedule: Q01DX009 (ip), vehicle: sodium bicarbonate) is 227 % of control and 97 % of control; the T/C (endpoint: mean survival time, dose: 12.5 mg/kg/injection, schedule: Q04DX003 (ip), vehicle: other) was 273 % of control and 291 % of control; the T/C (endpoint: mean survival time, dose: 12.5 mg/kg/injection, schedule: Q04DX003 (ip), vehicle: sodium bicarbonate) is 247 % of control; the T/C (endpoint: mean survival time, dose: 16.0 mg/kg/injection, schedule: Q01DX005 (oral), vehicle: sodium bicarbonate) is 100 % of control and 105 % of control; the T/C (endpoint: mean survival time, dose: 25.0 mg/kg/injection, schedule: Q04DX003 (ip), vehicle: other) was 328 % of control and 444 % of control. Also, the T/C reads like this: (endpoint: mean survival time, dose: 25.0 mg/kg/injection, schedule: Q04DX003 (ip), vehicle: sodium bicarbonate) 186 % of control; (endpoint: mean survival time, dose: 32.0 mg/kg/injection, schedule: Q01DX005 (oral), vehicle: sodium bicarbonate) 108 % of control; (endpoint: mean survival time, dose: 64.0 mg/kg/injection, schedule: Q01DX005 (oral), vehicle: sodium bicarbonate) 108 % of control; (endpoint: mean survival time, dose: 128.0 mg/kg/injection, schedule: Q01DX005 (oral), vehicle: sodium bicarbonate) 113 % of control and 103 % of control; (endpoint: mean survival time, dose: 256.0 mg/kg/injection, schedule: Q01DX005 (oral), vehicle: sodium bicarbonate) 116 % of control and 121 % of control and 111 % of control; (endpoint: median survival time, dose: 0.58 mg/kg/injection, schedule: Q01DX009 (ip), vehicle: sodium bicarbonate) 156 % of control. Further, the T/C runs as follows: (endpoint: median survival time, dose: 0.87 mg/kg/injection, schedule: Q01DX009 (ip), vehicle: water) 101 % of control and 112 % of control; (endpoint: median survival time, dose: 1.2 mg/kg/injection, schedule: Q01DX009 (ip), vehicle: sodium bicarbonate) 361 % of control; (endpoint: median survival time, dose: 1.3 mg/kg/injection, schedule: Q01DX009 (ip), vehicle: water) 115 % of control and 107 % of control; (endpoint: median survival time, dose: 1.8 mg/kg/injection, schedule: Q01DX009 (ip), vehicle: sodium bicarbonate) 313 % of control; (endpoint: median survival time, dose: 2.0 mg/kg/injection, schedule: Q01DX009 (ip), vehicle: water) 122 % of control and 101 % of control; (endpoint: median survival time, dose: 2.7 mg/kg/injection, schedule: Q01DX009 (ip), vehicle: sodium bicarbonate) 240 % of control. The T/C by setting is: (endpoint: median survival time, dose: 3.0 mg/kg/injection, schedule: Q01DX009 (ip), vehicle: sodium bicarbonate) 357 % of control; (endpoint: median survival time, dose: 3.13 mg/kg/injection, schedule: Q04DX003 (ip), vehicle: other) 154 % of control and 280 % of control; (endpoint: median survival time, dose: 3.13 mg/kg/injection, schedule: Q04DX003 (ip), vehicle: sodium bicarbonate) 174 % of control; (endpoint: median survival time, dose: 3.5 mg/kg/injection, schedule: Q01DX009 (ip), vehicle: water) 107 % of control; (endpoint: median survival time, dose: 4.0 mg/kg/injection, schedule: Q01DX009 (ip), vehicle: sodium bicarbonate) 166 % of control; (endpoint: median survival time, dose: 4.5 mg/kg/injection, schedule: Q01DX009 (ip), vehicle: sodium bicarbonate) 237 % of control. Further, the T/C by setting is: (endpoint: median survival time, dose: 5.0 mg/kg/injection, schedule: Q04DX003 (ip), vehicle: sodium bicarbonate) 176 % of control and 186 % of control and 195 % of control; (endpoint: median survival time, dose: 5.24 mg/kg/injection, schedule: Q04DX003 (ip), vehicle: sodium bicarbonate) 158 % of control; (endpoint: median survival time, dose: 5.3 mg/kg/injection, schedule: Q01DX009 (ip), vehicle: sodium bicarbonate) 182 % of control; (endpoint: median survival time, dose: 6.25 mg/kg/injection, schedule: Q04DX003 (ip), vehicle: other) 202 % of control and 313 % of control; (endpoint: median survival time, dose: 6.25 mg/kg/injection, schedule: Q04DX003 (ip), vehicle: saline) 265 % of control; (endpoint: median survival time, dose: 6.25 mg/kg/injection, schedule: Q04DX003 (ip), vehicle: sodium bicarbonate) 154 % of control and 348 % of control. For the same compound, the T/C by setting is: (endpoint: median survival time, dose: 7.78 mg/kg/injection, schedule: Q04DX003 (ip), vehicle: sodium bicarbonate) 198 % of control; (endpoint: median survival time, dose: 8.0 mg/kg/injection, schedule: Q01DX009 (ip), vehicle: water) 180 % of control; (endpoint: median survival time, dose: 8.3 mg/kg/injection, schedule: Q01DX009 (ip), vehicle: water) 277 % of control and 108 % of control; (endpoint: median survival time, dose: 10.0 mg/kg/injection, schedule: Q04DX003 (ip), vehicle: sodium bicarbonate) 231 % of control and 247 % of control and 430 % of control; (endpoint: median survival time, dose: 11.81 mg/kg/injection, schedule: Q04DX003 (ip), vehicle: sodium bicarbonate) 295 % of control; (endpoint: median survival time, dose: 12.0 mg/kg/injection, schedule: Q01DX009 (ip), vehicle: water) 298 % of control. For the same compound, the T/C (endpoint: median survival time, dose: 12.5 mg/kg/injection, schedule: Q04DX003 (ip), vehicle: other) is 202 % of control; the T/C (endpoint: median survival time, dose: 12.5 mg/kg/injection, schedule: Q04DX003 (ip), vehicle: saline) is 361 % of control; the T/C (endpoint: median survival time, dose: 12.5 mg/kg/injection, schedule: Q04DX003 (ip), vehicle: sodium bicarbonate) was 309 % of control and 348 % of control; the T/C (endpoint: median survival time, dose: 13.0 mg/kg/injection, schedule: Q04DX003 (ip), vehicle: sodium bicarbonate) was 231 % of control; the T/C (endpoint: median survival time, dose: 16.0 mg/kg/injection, schedule: Q01DX009 (ip), vehicle: water) is 240 % of control; the T/C (endpoint: median survival time, dose: 17.74 mg/kg/injection, schedule: Q04DX003 (ip), vehicle: sodium bicarbonate) is 214 % of control. Also, the T/C is 174 % of control (endpoint: median survival time, dose: 20.0 mg/kg/injection, schedule: Q01DX001 (ip), vehicle: sodium bicarbonate); 361 % of control (endpoint: median survival time, dose: 25.0 mg/kg/injection, schedule: Q04DX003 (ip), vehicle: saline); 357 % of control (endpoint: median survival time, dose: 25.0 mg/kg/injection, schedule: Q04DX003 (ip), vehicle: sodium bicarbonate); 345 % of control (endpoint: median survival time, dose: 26.64 mg/kg/injection, schedule: Q04DX003 (ip), vehicle: sodium bicarbonate); 170 % of control and 175 % of control and 333 % of control (endpoint: median survival time, dose: 30.0 mg/kg/injection, schedule: Q01DX001 (ip), vehicle: sodium bicarbonate); 323 % of control (endpoint: median survival time, dose: 30.0 mg/kg/injection, schedule: Q04DX003 (ip), vehicle: sodium bicarbonate). For the same compound, the T/C was 198 % of control and 714 % of control (endpoint: median survival time, dose: 40.0 mg/kg/injection, schedule: Q01DX001 (ip), vehicle: sodium bicarbonate); 210 % of control (endpoint: median survival time, dose: 50.0 mg/kg/injection, schedule: Q01DX001 (ip), vehicle: sodium bicarbonate); 345 % of control (endpoint: median survival time, dose: 50.0 mg/kg/injection, schedule: Q04DX003 (ip), vehicle: sodium bicarbonate); 89 % of control (endpoint: median survival time, dose: 64.0 mg/kg/injection, schedule: Q01DX009 (ip), vehicle: water).

For `CCn1c(N)c(N)c(=O)[nH]c1=S`, the T/C is, setting by setting: under setting [1], 94 % of control; under setting [2], 98 % of control; under setting [3], 88 % of control.

In the case of `O=C(Nc1ccccc1)c1ccccc1C1(O)c2ccccc2-c2ccccc21`, the T/C under setting [1] is 88 % of control, the T/C under setting [2] is 92 % of control and the T/C under setting [3] was 91 % of control.
